This note sets out measurements from US20060121607A1, “Compositions and methods for neural differentiation of embryonic stem cells” (priority 2002, published 2006).

In one experiment the test system is human ES cells. In words: Comparison of basic media for TH+ cell formation in human embryoid bodies. The experiment is classed as cell-based. The note with it: DMEM and 100 μM L-proline, absence of FGF2. The protocol:
Embryoid bodies/neurospheres from human ES cells were grown without the use of MEDII conditioned media Media and supplements used were Hams DMEM/F12 (Gibco Cat # 11320-033), ITSS (Gibco Cat#17502-048) and N2 (Gibco Cat#41400-045).
The ability of basic media with supplements (DMEM+N2 or ITSS) to promote neural differentiation of hES cells was compared with medium that included F12: (DMEM:F12 (1:1)+N2 or ITSS).
Trypsinised Human ES cells were seeded at approximately 10 to 20 cells/μl of media into 10 ml of neurosphere media (DMEM:F12, 10 μg/ml heparin (SIGMA), 1/50 B27 (GIBCO), 1/100 pen/strep, 1/100 ITSS) in a T75 culture flask. 10 ng/ml FGF2 was optionally added but the culture medium was preferably mitogen-free (no FGF2). Cultures were maintained in the media for 9 days after which the embryoid bodies were optionally transferred to poly-L-ornithine/laminin plates and cultured in the same media for a further 6 days. The embryoid bodies so formed (EB^15), whether from adherent or suspension culture, were then triturated to near single cell form and used for either transplantation or for the formation of neurospheres/cell reaggregates.
Example 15 was repeated utilising human ES cells and a minimal media consisting of DMEM and 100 μM L-proline. The results were similar to those described in Example 5. […]

Another experiment deals with SSEA4 selected HESCs. The note with it: 50 μM Proline, around 3 weeks suspension. An excerpt: Essentially serum free embryoid bodies were generated from bulk passaged monolayer HESC colonies as described in Example 5, in the presence of the media set out below.
The subject of experiment [1] is sfEBM single cell suspension. In words: Clonal derivation of colonies from dispersed sfEBM in suspension. The format is cell-based, human. To be noted: medium containing the factor alone. The protocol:
sfEBMs were transferred to tissue culture dishes (4-well or 35 mm) and were rinsed with Ca^2+/Mg^2+ free PBS. After settling, the PBS was aspirated and 1 or 2 ml of 0.25% trypsin was added. sfEBMs were dispersed to a single cell suspension, with occasional doublets or triplets, by gentle trituration using a 1 ml pipette. The cell suspension was transferred to a 15 ml tube, diluted with 9 or 18 ml of medium and pelleted by centrifugation. The pellet was resuspended in DMEM/F12 supplemented with 1×N2 supplement, FGF-2 (4 ng/ml), 50% MEDII and added to agarose coated suspension dishes at low density (0.5-5 cells/μl). These cultures were not disturbed for 4-5 days, when small uniform colonies could be observed. Colonies could be harvested at approximately 10 days.
In an attempt to derive clones of essentially serum free embryoid bodies, trypsin was used to generate single cell suspensions from sfEBM cultures and low density cell suspensions, from 0-0.5-5 cells/μl, were incubated in suspension dishes. […] The synergistic activities of FGF2 and MEDII in the derivation of clonal sfEBMs was unexpected. […] The colonies produced were presumed to be clonal, and proliferated to as much as 0.2 mm in diameter within 10 days. The cloning efficiency was in the order of 4.5-6%.

Turning to `O=C(O)[C@@H]1CCCN1` [L-proline], the “TH+ cells in EB^17 bodies” value in the experiment on human ES cells is recorded as roughly 50%. Moreover, the “appearance of sfEBPs with low cell death and distinct neural rosette structures” value in the experiment with SSEA4 selected HESCs is given as “noticeably enhanced”.

For the compound FGF-2: fibroblast growth factor FGF-2, the “generation of clonal colonies” value in experiment [1] is given as “No clonal colonies”.
